Assay results reported in patent US20230233470A1, “Formulations” (ViiV Healthcare Company, priority 2020, published 2023).

What was measured:
[1] = Dissolution (% released), USP <711> and Ph. Eur. 2.9.3; assay type: physicochemical; details: active released from Triumeq Dispersible Bilayer Tablet; Q = 75% at 60 minutes
[2] = Relative bioavailability: Trii Dispersible tablet (dispersed or direct to mouth) vs adult TRIUMEQ tablet; assay type: in vivo; details: for differences in exposure: dispersed or direct to mouth vs. the IR tablet
[3] = Initial relative bioavailability PK study: Triumeq bilayer tablets dispersed in Contrex or purified water vs 4 x 10 mg DTG tablet + Kivexa; assay type: in vivo; details: for differences in exposure across all 5 arms: Treatments A-E; for AUC0-inf (h*ug/mL) Ratio / Cmax (ug/mL) Ratio: DTG; for impact of DTG solubility on DTG levels in plasma / PK: solubility range studied 16-70%
Protocol: Treatment (TRT) A: Reference 4×10 mg DTG tablet+Kivexa (ABC 600 mg/3TC 300 mg)
(§1) Treatment B-E: Triumeq bilayer tablets—4 tablets (10 mg DTG/ABC 150 mg/3TC 75 mg) dispersed in high mineral content water (Contrex)* or purified water.
(§2) *Contrex water contains a very high level of minerals including calcium, purified water is mineral free.

[4] = Estimate of DTG solubility in the dispersion; assay type: physicochemical; details: for solubility when dispersed: Triumeq bilayer tablets dispersed in water
Protocol: as §1, §2

[5] = B vs A: bi-layer tablet in Contrex water, immediate, vs 4 × 10 mg tablet + Kivexa
[6] = C vs A: bi-layer tablet in Contrex water, 30 mins, vs control
[7] = D vs A: bi-layer tablet in purified water, immediate, vs control
[8] = E vs A: bi-layer tablet in purified water, 30 mins, vs control

Compound: Nc1nc(NC2CC2)c2ncn([C@H]3C=C[C@@H](CO)C3)c2n1 [Abacavir, (1S,4R-4-[2-amino-6-cyclopropylamino)-9H-purin-9-yl]-2-cyclopentene-1-methanol hemisulfate]
- Dissolution (% released) [1]: 101 (99-104) %
- differences in exposure [2]: No differences in exposure
- differences in exposure across all 5 arms [3]: no differences in exposure
- solubility when dispersed [4]: fully soluble

Compound: C[C@@H]1CCO[C@H]2Cn3cc(C(=O)NCc4ccc(F)cc4F)c(=O)c(O)c3C(=O)N12 [Dolutegravir, (4R,12aS)-N-[(2,4-difluorophenyl)methyl]-7-hydroxy-4-methyl-6,8-dioxo-3,4,12,12a-tetrahydro-2H-pyrido[5,6]pyrazino[2,6-b][1,3]oxazine-9-carboxamide]
- Dissolution (% released) [1]: 91 (87-95) %
- exposure, fold ([2]; dosed as dispersion vs adult immediate release tablet): ~1.6 ×
- exposure, fold ([2]; dosed direct to mouth vs adult immediate release tablet): ~1.25 ×
- AUC0-inf (h*ug/mL) Ratio [3, 5]: 1.56
- Cmax (ug/mL) Ratio [3, 5]: 1.59
- AUC0-inf (h*ug/mL) Ratio [3, 6]: 1.53
- Cmax (ug/mL) Ratio [3, 6]: 1.56
- AUC0-inf (h*ug/mL) Ratio [3, 7]: 1.58
- Cmax (ug/mL) Ratio [3, 7]: 1.56
- AUC0-inf (h*ug/mL) Ratio [3, 8]: 1.54
- Cmax (ug/mL) Ratio [3, 8]: 1.58
- exposure compared to the reference, fold ([3]; bilayer tablets dispersed (B-E) vs reference 4×10 mg DTG tablet + Kivexa): ~1.6 ×
- impact of DTG solubility on DTG levels in plasma / PK [3]: no impact on PK
- impact of DTG solubility on DTG levels in plasma / PK ([3]; listed as DTG): does not impact
- Estimate of DTG solubility ([4]; Treatment B: Bi-layer tablet, Contrex water (Ca++) plus flavour and sweetener, dispersion time immediate): Approx. 45% DTG
- Estimate of DTG solubility ([4]; Treatment C: Bi-layer tablet, Contrex water (Ca++) plus flavour and sweetener, dispersion time 30 mins): Approx. 45% DTG
- Estimate of DTG solubility ([4]; Treatment D: Bi-layer tablet, purified water plus flavour and sweetener, dispersion time immediate): Approx. 70% DTG
- Estimate of DTG solubility ([4]; Treatment E: Bi-layer tablet, purified water plus flavour and sweetener, dispersion time 30 mins): Approx. 16% DTG

Compound: Nc1ccn([C@@H]2CS[C@H](CO)O2)c(=O)n1 [Lamivudine, 2′,3′-dideoxy-3′-thiacytidine]
- Dissolution (% released) [1]: 99 (92-106) %
- differences in exposure [2]: No differences in exposure
- differences in exposure across all 5 arms [3]: no differences in exposure
- solubility when dispersed [4]: fully soluble
